The target in this test is HCV RdRp (NS5B) (UniProt P26663). The format is biochemical, hepatitis C virus.

Broadly, the IC50 is the concentration at which inhibition is half-maximal. Read a low IC50 as greater potency in that assay.

A value given as a limit tells only on which side of the number the result lay.

Chain of HCV RdRp (NS5B) (P26663 whole entry, looked up): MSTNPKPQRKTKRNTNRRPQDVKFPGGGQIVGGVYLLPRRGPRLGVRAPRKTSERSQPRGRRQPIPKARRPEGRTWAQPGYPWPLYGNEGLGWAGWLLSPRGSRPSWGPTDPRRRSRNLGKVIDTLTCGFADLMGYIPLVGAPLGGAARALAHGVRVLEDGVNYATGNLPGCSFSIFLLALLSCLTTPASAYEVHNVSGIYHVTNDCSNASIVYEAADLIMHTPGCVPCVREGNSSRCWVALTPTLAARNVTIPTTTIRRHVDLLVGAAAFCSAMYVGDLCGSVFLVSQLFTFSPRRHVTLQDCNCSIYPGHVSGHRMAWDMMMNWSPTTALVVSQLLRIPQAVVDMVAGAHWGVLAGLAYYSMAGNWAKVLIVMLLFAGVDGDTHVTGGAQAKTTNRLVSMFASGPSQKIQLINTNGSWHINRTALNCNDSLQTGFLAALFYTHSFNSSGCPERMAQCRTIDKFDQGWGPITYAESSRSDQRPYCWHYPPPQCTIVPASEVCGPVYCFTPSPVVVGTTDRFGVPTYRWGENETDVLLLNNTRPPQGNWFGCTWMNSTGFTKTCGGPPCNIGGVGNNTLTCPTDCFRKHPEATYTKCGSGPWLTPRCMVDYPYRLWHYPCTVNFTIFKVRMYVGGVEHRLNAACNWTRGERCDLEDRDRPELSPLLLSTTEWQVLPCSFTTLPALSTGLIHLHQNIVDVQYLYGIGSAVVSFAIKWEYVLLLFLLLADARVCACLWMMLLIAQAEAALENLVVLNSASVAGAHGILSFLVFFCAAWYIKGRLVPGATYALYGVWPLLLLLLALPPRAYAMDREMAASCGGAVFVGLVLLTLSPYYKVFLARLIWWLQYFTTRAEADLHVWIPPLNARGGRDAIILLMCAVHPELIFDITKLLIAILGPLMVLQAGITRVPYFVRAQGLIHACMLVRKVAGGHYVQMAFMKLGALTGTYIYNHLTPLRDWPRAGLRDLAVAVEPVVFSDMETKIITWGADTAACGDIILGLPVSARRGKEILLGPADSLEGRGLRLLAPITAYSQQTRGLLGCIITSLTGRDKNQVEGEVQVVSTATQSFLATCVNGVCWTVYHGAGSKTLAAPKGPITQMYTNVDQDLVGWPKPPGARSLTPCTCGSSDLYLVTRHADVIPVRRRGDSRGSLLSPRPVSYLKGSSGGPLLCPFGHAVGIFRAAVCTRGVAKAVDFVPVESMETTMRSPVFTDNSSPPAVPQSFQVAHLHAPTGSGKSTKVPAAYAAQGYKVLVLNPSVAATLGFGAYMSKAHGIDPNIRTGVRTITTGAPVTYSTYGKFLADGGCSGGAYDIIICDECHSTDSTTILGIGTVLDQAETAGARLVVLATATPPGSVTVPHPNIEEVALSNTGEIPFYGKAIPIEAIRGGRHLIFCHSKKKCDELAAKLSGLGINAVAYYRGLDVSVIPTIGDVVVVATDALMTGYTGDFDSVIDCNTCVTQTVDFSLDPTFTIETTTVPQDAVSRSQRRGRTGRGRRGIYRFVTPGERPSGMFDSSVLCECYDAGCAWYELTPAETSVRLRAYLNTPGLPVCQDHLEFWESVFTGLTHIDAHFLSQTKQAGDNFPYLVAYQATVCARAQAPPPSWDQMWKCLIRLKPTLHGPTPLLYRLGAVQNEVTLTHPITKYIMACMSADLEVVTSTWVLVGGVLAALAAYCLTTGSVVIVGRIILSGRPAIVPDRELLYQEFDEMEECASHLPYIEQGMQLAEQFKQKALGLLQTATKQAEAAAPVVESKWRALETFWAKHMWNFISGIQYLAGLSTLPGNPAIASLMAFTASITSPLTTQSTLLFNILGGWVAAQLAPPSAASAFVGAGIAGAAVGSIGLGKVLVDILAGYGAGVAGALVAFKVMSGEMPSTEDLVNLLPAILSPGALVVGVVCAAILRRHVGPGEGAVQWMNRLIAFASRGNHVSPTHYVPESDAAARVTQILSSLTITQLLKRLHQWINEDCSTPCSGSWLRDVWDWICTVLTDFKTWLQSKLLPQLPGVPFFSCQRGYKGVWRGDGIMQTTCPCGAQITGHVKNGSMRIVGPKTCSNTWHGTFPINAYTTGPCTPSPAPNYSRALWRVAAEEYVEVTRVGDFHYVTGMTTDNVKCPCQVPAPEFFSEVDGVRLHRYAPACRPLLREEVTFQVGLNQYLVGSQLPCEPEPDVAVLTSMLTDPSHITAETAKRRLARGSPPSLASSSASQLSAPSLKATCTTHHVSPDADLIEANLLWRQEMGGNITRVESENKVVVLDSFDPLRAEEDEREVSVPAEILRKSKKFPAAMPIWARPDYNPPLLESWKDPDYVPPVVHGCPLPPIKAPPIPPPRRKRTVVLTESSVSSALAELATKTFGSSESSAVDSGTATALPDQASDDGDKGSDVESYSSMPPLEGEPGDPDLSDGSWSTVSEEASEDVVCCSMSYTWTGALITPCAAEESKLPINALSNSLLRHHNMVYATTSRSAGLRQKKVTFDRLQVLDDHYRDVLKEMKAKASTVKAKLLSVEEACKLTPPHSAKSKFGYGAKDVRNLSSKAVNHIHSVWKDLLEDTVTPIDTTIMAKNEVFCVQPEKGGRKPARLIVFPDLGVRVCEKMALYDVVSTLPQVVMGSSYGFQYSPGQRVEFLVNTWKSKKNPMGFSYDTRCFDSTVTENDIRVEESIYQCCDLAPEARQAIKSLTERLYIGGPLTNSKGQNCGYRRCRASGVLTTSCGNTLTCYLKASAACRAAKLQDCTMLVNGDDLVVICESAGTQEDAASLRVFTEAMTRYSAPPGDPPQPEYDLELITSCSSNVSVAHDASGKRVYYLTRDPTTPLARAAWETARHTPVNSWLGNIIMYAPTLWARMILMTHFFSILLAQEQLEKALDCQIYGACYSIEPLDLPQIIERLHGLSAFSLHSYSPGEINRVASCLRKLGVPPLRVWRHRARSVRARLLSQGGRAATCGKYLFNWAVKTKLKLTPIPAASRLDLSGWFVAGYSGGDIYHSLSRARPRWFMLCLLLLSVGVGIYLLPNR

In turn, `CC(C)(C)OC(=O)NCCCC[C@H](N)C(=O)N(Cc1ccccc1)C1CCCCC1` [Compound 34, (S)-[5-AMINO-5-(BENZYL-CYCLOHEXYL-CARBAMOYL)-PENTYL]-CARBAMIC ACID TERT-BUTYL ESTER] yielded an IC50 of 10 to 50 µM.
In turn, `NCc1ccc(NC(=O)C(NC(=O)Nc2ccc(OCc3ccccc3)cc2)c2ccccc2)cc1` [Compound 305, (S)-NR-(4-AMINOMETHYL-PHENYL)-2-[3-(4-BENZYLOXY-PHENYL)-UREIDO]-2-PHENYL-ACETAMIDE] yielded an IC50 below 10 µM.
For `Cc1ccc(NC(=O)[C@H](CCCCN)NC(=O)CNc2ccc(Cl)cc2)cc1` [Compound 363, (S)-6-AMINO-2-[2-(4-CHLORO-PHENYLAMINO)-ACETYLAMINO]-HEXANOIC ACID P-TOLYLAMIDE], the half-maximal inhibitory concentration (IC50) was above 50 µM.
The compound `Cc1ccc(NC(=O)C(CNC(=O)CN)NC(=O)OCC2c3ccccc3-c3ccccc32)cc1` [Compound 115, (S)-[2-(2-AMINO-ACETYLAMINO)-1-P-TOLYLCARBAMOYL-ETHYL]-CARBAMIC ACID 9H-FLUOREN-9-YLMETHYL ESTER] came in with an IC50 of 10 to 50 µM.
The result for `CC(C)(C)Oc1ccc(C[C@H](N)C(=O)Nc2ccc(CN(C(=O)c3ccco3)C3CCCCC3)cc2)cc1` [Compound 8, (S)-FURAN-2-CARBOXYLIC ACID {4-[2-AMINO-3-(4-TERT-BUTOXY-PHENYL)-PROPIONYLAMINO]-BENZYL}-CYCLOHEXYL-AMIDE] reads above 50 µM.
As to `CC(C)(C)c1ccc(NC(=O)[C@H](CCCCN)NC(=O)OCC2c3ccccc3-c3ccccc32)cc1` [Compound 105, (S)-[5-AMINO-1-(4-TERT-BUTYL-PHENYLCARBAMOYL)-PENTYL]-CARBAMIC ACID 9H-FLUOREN-9-YLMETHYL ESTER], the IC50 lay in the range of 10 to 50 µM.
The result for `Cc1ccc(NC(=O)C(CCCCN)NC(=O)NCc2ccccc2)cc1` [Compound 133, (S)-6-AMINO-2-(3-BENZYL-UREIDO)-HEXANOIC ACID P-TOLYLAMIDE] reads above 50 µM; that for `Cc1ccc(NC(=O)[C@H](CCCCN)NC(=O)CNc2cccc(Cl)c2)cc1` [Compound 362, (S)-6-AMINO-2-[2-(3-CHLORO-PHENYLAMINO)-ACETYLAMINO]-HEXANOIC ACID P-TOLYLAMIDE], above 50 µM; that for `Cc1ccc(NC(=O)[C@H](CCCCN)NC(=O)CNc2ccc3c(c2)CCC3)cc1` [Compound 369, (S)-6-AMINO-2-[2-(INDAN-5-YLAMINO)-ACETYLAMINO]-HEXANOIC ACID P-TOLYLAMIDE], above 50 µM.
`CC(=O)NCC(=O)N1CCN(C(=O)OCC2c3ccccc3-c3ccccc32)C(CC(=O)Nc2ccc(C)cc2)C1` (centres unmarked) [Compound 186, 4-(2-ACETYLAMINO-ACETYL)-2-(P-TOLYLCARBAMOYL-METHYL)-PIPERAZINE-1-CARBOXYLIC ACID 9H-FLUOREN-9-YLMETHYL ESTER] displayed an IC50 above 50 µM.
The figure for `NCCC[C@@H](NC(=O)OCC1c2ccccc2-c2ccccc21)C(=O)Nc1ccc(CN(C(=O)c2ccco2)C2CCCCC2)cc1` [Compound 16, (R)-[4-AMINO-1-(4-{[CYCLOHEXYL-(FURAN-2-CARBONYL)-AMINO]-METHYL}-PHENYLCARBAMOYL)-BUTYL]-CARBAMIC ACID 9H-FLUOREN-9-YLMETHYL ESTER] is below 10 µM; for `NCCCC[C@H](NC(=O)OCC1c2ccccc2-c2ccccc21)C(=O)Nc1ccc(C2CCCCC2)cc1` [Compound 107, (S)-[5-AMINO-1-(4-CYCLOHEXYL-PHENYLCARBAMOYL)-PENTYL]-CARBAMIC ACID 9H-FLUOREN-9-YLMETHYL ESTER] it is below 10 µM.
In turn, `Cc1ccc(NC(=O)C(CCCCN)NC(=O)C2c3ccccc3-c3ccccc32)cc1` [Compound 52, (S)-9H-FLUORENE-9-CARBOXYLIC ACID (5-AMINO-1-P-TOLYLCARBAMOYL-PENTYL)-AMIDE] yielded an IC50 above 50 µM.
Turning to `Cc1ccc(NC(=O)[C@H](CCCCN)NC(=O)NCc2ccc(Cl)c(Cl)c2)cc1` [Compound 140, (S)-6-AMINO-2-[3-(3,4-DICHLORO-BENZYL)-UREIDO]-HEXANOIC ACID P-TOLYLAMIDE], the IC50 was 10 to 50 µM.

These data come from US20070021434A1, “NON-NUCLEOSIDE ANTI-HEPACIVIRUS AGENTS AND USES THEREOF” (Migenix Inc., priority 2005, published 2007).
